According to article PMC8839256, “Concept of Fluorescent Transport Activity Biosensor for the Characterization of the Arabidopsis NPF1.3 Activity of Nitrate” (Sensors (Basel, Switzerland), 2022):

Target: T1, NPF1.3 (Arabidopsis thaliana, UniProt Q9LYD5)
T1 construct: full-length cDNA in pOO2-GW; cRNA expressed in Xenopus laevis oocytes
T1 sequence (Q9LYD5 1-481): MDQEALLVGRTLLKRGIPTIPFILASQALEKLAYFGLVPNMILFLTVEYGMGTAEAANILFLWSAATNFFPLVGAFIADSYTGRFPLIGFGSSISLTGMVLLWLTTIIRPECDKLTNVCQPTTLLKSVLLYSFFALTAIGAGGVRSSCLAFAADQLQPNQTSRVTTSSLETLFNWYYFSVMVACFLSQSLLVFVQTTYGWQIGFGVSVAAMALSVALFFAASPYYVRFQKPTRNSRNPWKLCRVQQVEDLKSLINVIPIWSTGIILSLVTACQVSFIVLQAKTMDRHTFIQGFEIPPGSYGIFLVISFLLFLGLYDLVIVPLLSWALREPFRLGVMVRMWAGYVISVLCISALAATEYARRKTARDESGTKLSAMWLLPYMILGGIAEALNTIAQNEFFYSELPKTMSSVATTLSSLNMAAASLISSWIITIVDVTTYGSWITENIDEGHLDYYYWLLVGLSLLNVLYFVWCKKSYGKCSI
Assay: two-electrode voltage clamp, inward current in Xenopus oocytes
Format: cell-based
Conditions: 5 mM CsNO3 (Figure 5 legend, methods; text says KNO3); -120 mV

`O=[N+]([O-])O` [nitrate] was tested, and the “two-electrode voltage clamp, inward current in Xenopus oocytes” value was “the nitrate-dependent inward currents were observed by KNO3 in NPF1.3-injected oocytes”.
